# pKd: −log10 of the molar value. Entries after “also recorded” stand apart in the source; their conditions may differ. Where two headings read alike, the source gives them in different places.
# Tests used:
# Erbin‐P0071 complex = system: T1, Erbin‐P0071 complex; test: HTRF assay, Erbin-P0071 interaction; type: biochemical, human
# T1 construct: human Erbin PDZ domain; made in house; host or cells: E. coli BL21 (DE3)
# Procedure: HTRF assays were performed in white 96Well Small VolumeHiBase Polystyrene Microplates (Greiner) with a total working volume of […], as described previously (Milhas et al., 2016). Briefly, compounds were firstly dispensed into the wells at 400 µM for the primary screen or with serial DMSO dilutions for IC50 measurement assays. Primary screening assays have been performed in monoplicate while IC50 measurements were performed in triplicates. All HTRF reagents were purchased from CisBio Bioassays and reconstituted according to the supplier protocols. The plates were spun for 3 min at 500 × g and then incubated at 4°C for 16 h. The HTRF signals were recorded on a POLAR star Omega plate reader (BMG Labtech) with an excitation filter at 337 nm and fluorescence wavelength measurement at 620 and 665 nm, an integration delay of 60 µs and an integration time of 400 µs. Results were analysed with a two‐wavelength signal ratio: [intensity (665 nm)/intensity (620 nm)] × 10^4. Percentage of inhibition was calculated using the following equation: % inhibition = [(compound signal)–(min signal)]/[(max signal)–(min signal)] × 100, where ‘max signal’ is the signal ratio with the compound vehicle alone (DMSO) and ‘min signal’ the signal ratio without protein B. For IC50 measurements, values were normalized and fitted with Prism (GraphPad software) using the following equation: Y = 100/(1+((X/ IC50)ˆHill slope)).
# The search strategy for PDZ2 syntenin inhibitors was based on the PDZ targeted library developed from Enamine compound collection. The PDZ targeted library was developed to cover virtually all PDZ domains. Consequently, to create the syntenin PDZ2 focused library we used two independent paths: docking of the PDZ targeted library against structures of syntenin PDZ2 available in Protein Data Bank and a random selection from the PDZ targeted library. The docking has produced 21 virtual hits, which were added to 118 randomly selected compounds (10% of the pan PDZ library). The resultant set of 139 compounds, syntenin PDZ library was subjected to experimental validation. The primary screen was performed at 400µM using a previously validated Homogeneous Time Resolved Fluorescence (HTRF) assay (Milhas et al., 2016). HTRF is based on Fluorescence Resonance Energy Transfer (FRET) between two fluorescent reagents. In the present case, Anti‐GST‐Terbium antibody and streptavidin‐bound Dynamic2 were used as donor and acceptor respectively. Interactions between GST PDZ‐fusion proteins and biotinylated peptides containing PDZ binding motifs were challenged with the potential inhibitors. In parallel, control experiments were performed with a biotinylated‐GST to verify that compounds were not interfering with the FRET signal in a non‐specific manner. To identify inhibitors of syntenin PDZ interactions, we tested for the effect of the 139 compounds on syntenin‐SDC2 and syntenin‐Frizzled7 complexes (Figure 1a; Table S1). When the HTRF signal dropped below 0.9, inhibition was considered as effective. […] Noteworthy, these compounds had no effect on other PDZ complexes like GRASP55‐JAM‐B or GRASP55‐JAM‐C and Erbin‐Erbb2 or Erbin‐P0071 (Figure 1c).
# [1] = target: T2, syntenin‐PDZ tandem plus C‐terminal domain (Homo sapiens, UniProt O00560); test: Surface plasmon resonance (BIAcore), syntenin PDZ tandem plus C-terminal domain; type: binding
# T2 construct: made in house; host or cells: Biotin XCell F' E. coli cells
# T2 sequence (O00560 107-298): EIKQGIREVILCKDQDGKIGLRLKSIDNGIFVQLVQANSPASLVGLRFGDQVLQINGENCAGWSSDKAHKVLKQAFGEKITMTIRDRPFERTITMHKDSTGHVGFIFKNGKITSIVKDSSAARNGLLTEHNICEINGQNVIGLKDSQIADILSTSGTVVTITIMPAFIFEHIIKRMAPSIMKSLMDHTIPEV
# Procedure: All SPR experiments were conducted with a BIAcore T200 instrument (GE Healthcare), at 25°C. A total of 8000 resonance units (RU) of biotinylated ligands (N‐terminal 6xHis tagged biotinylated syntenin tandem, syntenin tandem with C terminus, GRASP55 tandem or GST as control) were immobilized on a streptavidin‐sensor chip (GE Healthcare). Analytes (C58 and SyntOFF compounds) were perfused at 30 µl per min in running buffer (10 mM HEPES pH 7.4, 150 mM NaCl, 0.005% Tween20) at different concentrations. The reference channel was N‐terminal 6xHis tagged biotinylated GST protein. The injection time was 240 s, long enough for the sensorgrams to reach equilibrium, and the dissociation time was 240 s. To carry out these SPR experiments, we employed the method known as ‘single‐cycle kinetics’ described in 2006 by Karlsson and co‐workers (Karlsson, Katsamba, Nordin, Pol, & Myszka, 2006). It consists in injecting the analyte at increasing concentrations, without regeneration steps between each sample injection to avoid that folded‐proteins can be damaged after regeneration steps. Equilibrium dissociation constants (KD) were calculated by fitting the data to a simple Langmuir binding isotherm using GraphPad Prism. For determination of the apparent KD, signals obtained at equilibrium were plotted as a function of compound concentration. […]
# MCF‐7 cells [2] = test: Cancer cell viability (Annexin V/7-AAD flow cytometry), MCF-7; type: cell-based; details: MCF-7, concentrations up to 100 µM, 48 h
# Procedure: The effects of the compounds C58 and SyntOFF were tested both on MCF‐7 and MCF‐7 SyntKO cells. Briefly, the cells were treated with increasing concentrations of the compounds for 48 h and early/late apoptosis was measured by using the FITC Annexin V apoptosis detection kit with 7‐AAD (Biolegend, San Diego, CA, USA) according to the manufacturer. Annexin V positive but 7‐AAD negative (early apoptotic cells) and Annexin V positive and 7‐AAD positive (late stage apoptosis) was determined by using FACS LSRII flow cytometer (BD Biosciences) and data were analysed with Flowjo software (Tree Star).
# MCF‐7 cells [3] = test: Soft agar colony formation assay; type: cell-based; details: wild-type MCF-7, 100 µM
# Procedure: Agarose was melted in water and mixed with DMEM‐F12 medium pre‐incubated at 37°C to reach a 0.6% or a 0.36 % final concentration. A lower layer of 0.6% agarose was deposited in each well of a 96‐well plate except that the first and last rows and columns of the plate were filled with PBS to avoid drying. Agarose was allowed to cool for 15 min before the upper layer containing different concentrations of cells, a final concentration of 0.36% agarose and compounds (100 µM) was added. Compounds were added only once at the beginning of experiment. Each condition was tested in triplicate. Colonies were kept at 37°C in a 5% CO2 incubator and daily observed under microscope. At the end of the experiment, cells were tested for their ATP content, an indicator of their metabolic activity, using the Promega kit G7570. In this assay, ATP is used as a co‐factor for a luciferase reaction. Signals were analysed by measuring luminescence with a LUMIstar luminometer (BMG Labtech).
SMILES,"GST-Erbin P0071 (signal ratio) (Erbin‐P0071 complex; 400µM compound, Figure 1c)","pKd ([1]; compound in PBS, read-out: apparent KD, syntenin‐PDZ tandem plus C‐terminal domain)",toxicity (cell viability) (MCF‐7 cells [2]),colony formation in soft agar (MCF‐7 cells [3]),"effect on Erbin‐P0071 complex (Erbin‐P0071 complex; HTRF dose-response, Figure S2a)","pKd ([1]; DMSO as vehicle, read-out: KD, syntenin‐PDZ tandem plus C‐terminal domain)"
CC(C)[C@H](NC(=O)CSc1ccc(Cl)cc1)C(=O)O [Compound C58],1,3.05,not toxic; also recorded: non‐toxic,decreases,,
"CC(C)[C@H](NC(=O)CCSc1ccc(Cl)cc1)C(=O)O [SyntOFF, (S)‐2‐(3‐(4‐chlorophenylthio)propanamido)‐3‐methylbutanoic acid]",,,non‐toxic,,not affecting,3.89

# Source: article PMC7737769, “Pharmacological inhibition of syntenin PDZ2 domain impairs breast cancer cell activities and exosome loading with syndecan and EpCAM cargo” (Journal of Extracellular Vesicles, 2020)
